Measurements taken from patent publication EP0801947B1, “Use of octopirox as skin depigmentation agent” (L'OREAL, priority 1996, dated 1997).

System: tyrosinase de champignons
Assay: Inhibition of the dopa-oxidase activity of mushroom tyrosinase (dopachrome formation followed by visible spectrometry at 475 nm)
Format: biochemical
Source text: Un test a mis en évidence l'activité de l'octopirox comme inhibiteur de la tyrosinase par évaluation de son effet inhibiteur sur l'activité dopa-oxydase de la tyrosinase des mélanocytes de champignons.
Selon ce test, on suit par spectrométrie visible à 475 nm la quantité de dopachrome formée au cours de la chaîne de réaction de transformation de la tyrosine en mélanine, en fonction du temps. Ces réactions sont catalysées in vitro par la tyrosinase de champignons, en présence d'un co-substrat réducteur (la L-dopa en petite quantité) pour initier la réaction d'hydroxylation de la L-tyrosine en L-dopa, laquelle est ensuite oxydée catalytiquement en dopaquinone puis en dopachrome, produit intermédiaire avant les réactions d'oxydation non enzymatiques aboutissant à la formation de mélanine.
Le milieu réactionnel utilisé pour réaliser ce test comprend 1 ml d'une solution de L-tyrosine à 2.10^-3 M dans du tampon phosphate 0,1 M de pH = 6,5, 0,1 ml de solution de L-dopa à 10^-4 M dans le tampon phosphate, 0,05 ml de solution de tyrosinase de champignons à 2.400 unités/ml dans le tampon phosphate et 1,85 ml de solution de l'inhibiteur à 10^-2 M dans le tampon phosphate. Pour le témoin, la quantité d'inhibiteur a été remplacée par de l'éthanol. […]
La concentration de 10^-2 M d'octopirox dans le milieu réactionnel correspond à une quantité équimolaire par rapport à la tyrosine utilisée. […]

temps pour obtenir le même pourcentage de dopachrome formée, par exemple 100 % (inhibitor solution 10^-2 M in phosphate buffer 0,1 M pH 6,5, L-tyrosine 2.10^-3 M, L-dopa 10^-4 M, control (ethanol) 9,5 minutes, figure 1 curves (b)): 14 min
SMILES: Cc1cc(CC(C)CC(C)(C)C)n(O)c(=O)c1 (centres unmarked) [octopirox, 1-hydroxy-4-méthyl-6-(2,4,4-triméthylpentyl)-2(1H)-pyridinone]
quantité de dopachrome formée au cours du temps (inhibitor solution 10^-2 M, compared with control curve (a), figure 1, result in words): net ralentissement de la quantité de dopachrome formée au cours du temps
